Test results from PubChem BioAssay (NCI).
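How tested: cells in 96-well plates exposed to compound for 48 hours at five concentrations. TGI: concentration producing complete growth inhibition.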 Where a SMILES comes first, the peptide text is derived from it. The star is where a group is joined. Boc = CC(C)(C)OC(=O)*

Legend:
Test in all cases: growth of human tumour cells (NCI), 48 h
[1] = test system: SK-MEL-28 melanoma
[2] = test system: MDA-MB-231 breast
[3] = test system: MCF7 breast
[4] = test system: 786-0 renal
[5] = test system: OVCAR-5 ovarian
[6] = test system: RXF 393 renal
[7] = test system: SK-OV-3 ovarian
[8] = test system: NCI-H522 lung
[9] = test system: COLO 205 colon
[10] = test system: MDA-MB-435

SMILES	TGI [1]	TGI [2]	TGI [3]	TGI [4]	TGI [5]	TGI [6]	TGI [7]	TGI [8]	TGI [9]	TGI [10]
O=P(c1ccccc1)(c1ccccc1)N1O[C@@H](c2ccccc2)C=C[C@H]1c1ccccc1	38.3 µM	21.1 µM	12.6 µM	23.3 µM	32.1 µM	22.9 µM	33.4 µM	24.5 µM	31.2 µM	18.7 µM
Nc1c(-c2cccc3ccccc23)c2ccc([N+](=O)[O-])cc2c(=O)n1-c1nc2ccccc2s1	> 100 µM	> 47.5 µM	7.84 µM	> 36.2 µM	> 41.2 µM	> 31.3 µM	14.8 µM	6.86 µM	> 100 µM	> 100 µM
C(=N\NC1=NCCCN1)/c1ccc2ccccc2c1	31.9 µM	20 µM	15.8 µM	24.2 µM	21.8 µM	30.3 µM	23.6 µM	32.4 µM	19.3 µM	18.7 µM
CC(C)/C(Cl)=N\OC(=O)Nc1ccc(C#N)cc1	25 µM	28.1 µM	22.4 µM	11.8 µM	28.4 µM	8.01 µM	31.1 µM	3.21 µM	3.24 µM	20.8 µM
O=C(CCCN1CCC2(CC1)CC(=O)N(N1CCOCC1)C2=O)c1ccccc1	> 100 µM	> 100 µM	> 100 µM	> 100 µM	> 100 µM	> 100 µM	> 100 µM	> 100 µM	> 100 µM	35.4 µM
CCOc1cc(C2CC(c3ccc(NS(=O)(=O)c4cc([N+](=O)[O-])ccc4C)cc3)=NN2C(=O)c2ccccc2)ccc1O (stereo not given)	> 100 µM	48.1 µM	> 100 µM	46.7 µM	> 100 µM	42.6 µM	54.5 µM	64.5 µM	31.4 µM	> 100 µM
C=CCOC(=O)CC[N+]1=CCC(c2ccccc2)(c2ccccc2)O1	> 100 µM	> 100 µM	> 100 µM	> 100 µM	> 100 µM	> 100 µM	> 100 µM	> 100 µM	> 100 µM	> 100 µM
CCCNC(=O)CCC(C)[C@H]1CCC2C3C(C[C@H](OC(C)=O)[C@@]21C)[C@@]1(C)CCC2(C[C@H]1C[C@H]3OC(C)=O)OOC1(CCC(C)CC1)OO2 (stereo not given in full)	> 100 µM	98.4 µM	> 100 µM	33.4 µM	87.4 µM	> 100 µM	> 100 µM	33.3 µM	29.9 µM	39.5 µM
Oc1ccccc1/C=N/c1nc2cc3sc(/N=C/c4ccccc4O)nc3cc2s1	> 100 µM	> 100 µM	> 100 µM	> 100 µM	> 100 µM	> 85.3 µM	> 100 µM	> 100 µM	20.7 µM	> 100 µM
CC(C)(C)OC(=O)NCC(=O)NCC(=O)NCC(=O)NCC(=O)O (Boc-GGGG-OH)	> 100 µM	> 100 µM	> 100 µM	> 100 µM	> 100 µM	> 100 µM	> 100 µM	> 100 µM	> 100 µM	> 100 µM
O=C1C[C@H](Sc2ccccc2)C2(OCCO2)[C@@H](Sc2ccccc2)C1	10.4 µM	5.78 µM	6.01 µM	> 30.2 µM	12.3 µM	4.25 µM	24.7 µM	1.81 µM	15.4 µM	7.97 µM
COC(=O)[C@]12CC[C@H]3CN(C(=O)OCc4ccccc4)[C@H]([C@H]31)[C@H](c1ccco1)N2S(=O)(=O)c1ccc(C)cc1	> 100 µM	> 100 µM	42 µM	37.6 µM	> 100 µM	38.1 µM	> 100 µM	45.7 µM	38.4 µM	67.3 µM
COc1ccc(C(OCC2OC(n3cc(C)c(=O)[nH]c3=O)CC2n2cc(Cn3cc(F)c(=O)[nH]c3=O)nn2)(c2ccccc2)c2ccccc2)cc1 (stereo not given)	24.9 µM	7.7 µM	34.7 µM	21.7 µM	35.5 µM	49.6 µM	22.9 µM	21.5 µM	27 µM	3.94 µM
C=CCO/N=C/c1cc(NC(=S)c2ccoc2C)ccc1Cl	> 100 µM	30.1 µM	23.3 µM	> 100 µM	33.8 µM	65.8 µM	36.2 µM	23.7 µM	27.5 µM	54.4 µM
COc1cc(C2CC(C)(Nc3ccccc3)Oc3cc4c(cc32)OCO4)cc(OC)c1OC (stereo not given)	> 100 µM	4.34 µM	> 51.5 µM	> 78.4 µM	> 34.3 µM	> 100 µM	25.9 µM	10.7 µM	5.27 µM	0.0688 µM
CC(O)C1CC1(CO)CNc1cc(Cl)nc(N)n1 (stereo not given)	> 100 µM	> 100 µM	> 100 µM	> 100 µM	> 100 µM	> 100 µM	> 100 µM	> 100 µM	> 100 µM	> 100 µM

SMILES	TGI [1]	TGI [2]	TGI [3]	TGI [4]	TGI [5]	TGI [6]	TGI [7]	TGI [8]	TGI [9]	TGI [10]
CN(C)C(=S)S	> 100 µM	> 100 µM	> 100 µM	> 100 µM	> 100 µM	> 100 µM	> 100 µM	> 20.4 µM	> 100 µM	> 100 µM
Cc1csc(-c2cn(C)c3c2C(=O)C(N)=CC3=O)n1	> 100 µM	> 100 µM	> 100 µM	> 100 µM	> 100 µM	> 100 µM	> 100 µM	> 100 µM	> 100 µM	15.3 µM
O=C(NCCN1CCOCC1)c1ccc2cc(C(=O)N3CC(CCl)c4ccc([N+](=O)[O-])cc43)[nH]c2c1 (stereo not given)	> 100 µM	36.3 µM	> 100 µM	38.4 µM	> 100 µM	20.4 µM	40.5 µM	39.7 µM	> 100 µM	49.2 µM
COc1cc(NS(C)(=O)=O)ccc1N1Cc2cnc3ccc4[nH]c(C)cc1c4c23	> 100 µM	> 100 µM	> 100 µM	36.5 µM	> 100 µM	> 100 µM	> 100 µM	80.7 µM	> 100 µM	50.1 µM
O=C(NCCCN(CCCCN(CCCNC(=O)C(F)(F)F)Cc1ccccc1)Cc1ccccc1)C(F)(F)F	25.1 µM	34.1 µM	24.7 µM	25.1 µM	40.8 µM	32.6 µM	36.1 µM	22.3 µM	26.8 µM	33.9 µM
COc1ccc(C2(CC(C)O)SCCCS2)cc1 (stereo not given)	> 100 µM	> 100 µM	> 100 µM	> 100 µM	> 100 µM	> 100 µM	> 100 µM	> 100 µM	> 100 µM	> 100 µM
COc1cc(C2SCC(=O)N2c2ccc(NC(=O)c3ccc(N4C(=O)CSC4c4cc(OC)c(OC)c(OC)c4)cc3)cc2)cc(OC)c1OC (stereo not given)	> 100 µM	> 100 µM	> 100 µM	> 100 µM	> 100 µM	> 100 µM	> 100 µM	> 100 µM	> 100 µM	61.4 µM
CC(C)COP(=O)(OCC(C)C)C(NS(=O)(=O)c1ccccc1)(C(F)(F)F)C(F)(F)F	37.1 µM	5.56 µM	> 100 µM	25.7 µM	38.1 µM	21.1 µM	29.9 µM	17.4 µM	3.94 µM	22.3 µM
CN(C)c1nc(=NCc2ccccc2)ss1	> 10 µM	> 10 µM	> 10 µM	> 10 µM	> 10 µM	> 10 µM	> 10 µM	> 10 µM	> 10 µM	> 10 µM
O=C1CN2C(c3ccccc3)=NN(c3ccc([N+](=O)[O-])cc3)C2(c2ccccc2)c2cc(Cl)ccc2N1CC1CC1 (stereo not given)	> 100 µM	> 100 µM	> 100 µM	> 100 µM	> 100 µM	> 100 µM	> 100 µM	> 100 µM	> 100 µM	> 100 µM
CC1CC[C@@]2(OC1)OC1C[C@H]3[C@@H]4CC[C@H]5CC(OC6OC(CO)C(OC7OC(CO)C(O)C(O)C7OC7OC(CO)C(O)C(O)C7O)C(O)C6O)CCC5(C)[C@H]4CCC3(C)C1[C@@H]2C (stereo not given in full)	8.32 µM	3.04 µM	2.26 µM	5.44 µM	8.08 µM	2.76 µM	6.04 µM	5.19 µM	1.77 µM	9.7 µM
C/C=C/C=C/c1nc(C#N)c(N)o1	> 100 µM	> 100 µM	> 100 µM	> 100 µM	> 100 µM	> 100 µM	> 100 µM	> 100 µM	> 100 µM	> 100 µM
O=c1c2cc3c(cc2[nH]c2ncccc12)OCO3	> 10 µM	> 10 µM	> 10 µM	> 10 µM	> 10 µM	> 10 µM	> 10 µM	> 10 µM	> 10 µM	> 10 µM
O=C1/C(=C\c2cccc(Oc3ccccc3)c2)S(=O)(=O)C(c2ccccc2)N1Cc1ccccc1 (stereo not given)	93.2 µM	68.1 µM	> 100 µM	40.1 µM	> 100 µM	77.5 µM	> 100 µM	33.7 µM	57 µM	96.5 µM
COc1ccc2cc3c4cc5c(cc4cc[n+]3cc2c1OC)OCO5	19.4 µM	> 100 µM	> 96.2 µM	> 100 µM	> 100 µM	> 69.6 µM	> 84.9 µM	21.5 µM	6.73 µM	22.9 µM
